# Experimental data from the supplement of paper PMC10307832.
# Compound: C[C@@]1(C(=O)Nc2ccc(F)nc2)CCCN1c1nc(Nc2cc(C3CC3)n[nH]2)c2cccn2n1 + CS(=O)(=O)CCNCc1ccc(-c2ccc3ncnc(Nc4ccc(OCc5cccc(F)c5)c(Cl)c4)c3c2)o1 [Lapatinib] (partner 2 µM)
# Test: relative viability (nuclei count vs DMSO), 5 days (fraction); higher = more cells survive
# Details: first compound 0.04 µM
# Procedure, shortened: (§1)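 Nuclei were stained with Hoechst during a one-step fixation (final 0.05% Triton X-100, 1% formaldehyde, 1 ug/ml Hoechst) carried out 5 days after dosing, then counted on 4× images. The cells, lung cancer lines in 1536-well plates, had been dosed by pin tool the day after seeding with one drug alone or a fixed anchor-drug dose plus five library-drug doses (not always all listed) in √10 steps. Relative viability is the nuclei count in treated wells divided by that in vehicle wells, and each value is the median of duplicate plates.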
row,Cell Line,relative viability
1,NCI-H727,0.692
2,NCI-H1650,0.894
3,EBC-1,0.208
4,NCI-H1703,0.996
5,NCI-H1993,0.797
6,SW 1573,1.04
7,NCI-H838,0.895
8,NCI-H520,0.98
9,NCI-H2126,0.693
10,EMC-BAC-2,0.856
11,NCI-H2085,0.808

# Same assay, conditions: first compound 0.1265 µM
row,Cell Line,relative viability
1,NCI-H727,0.371
2,NCI-H1650,0.679
3,EBC-1,0.19
4,NCI-H1703,0.867
5,SW 1573,0.902
6,NCI-H838,0.85
7,NCI-H520,0.841
8,NCI-H2126,0.454
9,EMC-BAC-2,0.671
10,NCI-H2085,0.639

# Same assay, conditions: first compound 0.4 µM
row,Cell Line,relative viability
1,NCI-H727,0.247
2,NCI-H1650,0.656
3,EBC-1,0.239
4,NCI-H1703,0.898
5,NCI-H1993,0.663
6,SW 1573,0.729
7,NCI-H838,0.597
8,NCI-H520,0.826
9,NCI-H2126,0.376
10,EMC-BAC-2,0.572
11,NCI-H2085,0.661

# Same assay, conditions: first compound 1.265 µM
row,Cell Line,relative viability
1,NCI-H727,0.294
2,NCI-H1650,0.402
3,EBC-1,0.205
4,NCI-H1993,0.592
5,SW 1573,1
6,NCI-H838,0.622
7,NCI-H520,0.875
8,NCI-H2126,0.399
9,EMC-BAC-2,0.622
10,NCI-H2085,0.62

# Compound: CC1(C)CNc2cc(NC(=O)c3cccnc3NCc3ccncc3)ccc21 [Motesanib] + CS(=O)(=O)N1CCN(Cc2cc3nc(-c4cccc5[nH]ncc45)nc(N4CCOCC4)c3s2)CC1 [Pictilisib] (partner 1 µM)
# Test: as above
# Details: first compound 0.01 µM
# Procedure, shortened: as §1
row,Cell Line,relative viability
1,NCI-H727,0.324
2,NCI-H1650,0.592
3,EBC-1,0.503
4,NCI-H1703,0.21
5,NCI-H1993,0.676
6,SW 1573,0.479
7,NCI-H838,0.496
8,NCI-H520,0.269
9,NCI-H2126,0.531
10,EMC-BAC-2,0.582
11,NCI-H2085,0.377
12,NCI-H441,0.414

# Same assay, conditions: first compound 0.03162 µM
row,Cell Line,relative viability
1,NCI-H727,0.369
2,EBC-1,0.366
3,NCI-H1703,0.219
4,NCI-H1993,0.917
5,SW 1573,0.437
6,NCI-H838,0.441
7,LCLC-103H,0.613
8,NCI-H520,0.267
9,NCI-H2126,0.539
10,EMC-BAC-2,0.564
11,NCI-H2085,0.447
12,ChaGo-K-1,0.535
13,NCI-H441,0.524

# Same assay, conditions: first compound 0.1 µM
row,Cell Line,relative viability
1,NCI-H727,0.463
2,NCI-H1650,0.516
3,EBC-1,0.302
4,NCI-H1703,0.195
5,NCI-H1993,0.899
6,SW 1573,0.617
7,NCI-H838,0.462
8,LCLC-103H,0.542
9,NCI-H520,0.345
10,NCI-H2126,0.476
11,EMC-BAC-2,0.537
12,NCI-H2085,0.405
13,ChaGo-K-1,0.532
14,NCI-H441,0.518

# Same assay, conditions: first compound 0.3162 µM
row,Cell Line,relative viability
1,NCI-H727,0.464
2,NCI-H1650,0.495
3,EBC-1,0.385
4,NCI-H1703,0.215
5,NCI-H1993,0.767
6,SW 1573,0.54
7,NCI-H838,0.449
8,LCLC-103H,0.639
9,NCI-H520,0.284
10,NCI-H2126,0.553
11,EMC-BAC-2,0.542
12,NCI-H2085,0.509
13,ChaGo-K-1,0.638
14,NCI-H441,0.441

# Same assay, conditions: first compound 1 µM
row,Cell Line,relative viability
1,NCI-H727,0.379
2,NCI-H1650,0.517
3,EBC-1,0.335
4,NCI-H1703,0.214
5,NCI-H1993,0.805
6,SW 1573,0.563
7,NCI-H838,0.508
8,LCLC-103H,0.709
9,NCI-H520,0.207
10,NCI-H2126,0.508
11,EMC-BAC-2,0.6
12,NCI-H2085,0.468
13,ChaGo-K-1,0.757
14,NCI-H441,0.506

# Compound: CC1(C)CNc2cc(NC(=O)c3cccnc3NCc3ccncc3)ccc21 [Motesanib]
# Test: relative viability (nuclei count vs DMSO), 5 days (fraction); higher = more cells survive
# Details: 0.01 µM
# Procedure, shortened: (§2)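 Lung cancer cell lines in 1536-well plates were exposed by pinning to five library-drug doses (not always all listed) √10 apart, following an overnight hold at 37 °C. MetaXpress counted Hoechst-stained nuclei from 4× images taken after 5 days without medium change. Viability is the median ratio of treated-well to vehicle-well nuclei across plates. Plates required control CV below 25% and at least one doubling.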
row,Cell Line,relative viability
1,NCI-H2342,0.902
2,NCI-H1623,1.06
3,NCI-H727,0.83
4,NCI-H1650,1.03
5,EBC-1,1.01
6,NCI-H1703,0.911
7,NCI-H1993,0.993
8,SW 1573,0.998
9,NCI-H838,1.04
10,LCLC-103H,0.914
11,NCI-H520,0.931
12,NCI-H2126,1.03
13,EMC-BAC-2,0.964
14,NCI-H2085,1.02
15,NCI-H1648,0.744
16,ChaGo-K-1,0.973
17,NCI-H522,0.939
18,SW 900,0.834
19,NCI-H441,1.02

# Same assay, conditions: 0.03162 µM
row,Cell Line,relative viability
1,NCI-H2342,0.976
2,NCI-H1623,1.08
3,NCI-H727,1
4,NCI-H1650,0.792
5,EBC-1,0.927
6,NCI-H1703,0.901
7,NCI-H1993,0.941
8,SW 1573,0.894
9,NCI-H838,0.962
10,LCLC-103H,0.958
11,NCI-H520,1.03
12,NCI-H2126,1.04
13,EMC-BAC-2,1.01
14,NCI-H2085,0.993
15,NCI-H1648,0.658
16,ChaGo-K-1,0.931
17,NCI-H522,1.01
18,SW 900,0.782
19,NCI-H441,1.06

# Same assay, conditions: 0.1 µM
row,Cell Line,relative viability
1,NCI-H2342,1.05
2,NCI-H1623,0.901
3,NCI-H727,0.9
4,NCI-H1650,1.06
5,EBC-1,1.01
6,NCI-H1703,0.52
7,NCI-H1993,0.977
8,SW 1573,0.977
9,NCI-H838,0.985
10,LCLC-103H,0.974
11,NCI-H520,0.971
12,NCI-H2126,1.01
13,EMC-BAC-2,0.987
14,NCI-H2085,0.981
15,NCI-H1648,0.71
16,ChaGo-K-1,0.932
17,NCI-H522,1.06
18,SW 900,0.809
19,NCI-H441,0.981

# Same assay, conditions: 0.3162 µM
row,Cell Line,relative viability
1,NCI-H2342,0.928
2,NCI-H1623,0.964
3,NCI-H727,0.974
4,NCI-H1650,0.947
5,EBC-1,1.03
6,NCI-H1703,0.286
7,NCI-H1993,0.963
8,SW 1573,1.05
9,NCI-H838,1.02
10,LCLC-103H,1.02
11,NCI-H520,1.05
12,NCI-H2126,1.04
13,EMC-BAC-2,1.05
14,NCI-H2085,1.06
15,NCI-H1648,1.1
16,ChaGo-K-1,0.999
17,NCI-H522,1.06
18,SW 900,0.9
19,NCI-H441,1.08

# Same assay, conditions: 1 µM
row,Cell Line,relative viability
1,NCI-H2342,1.06
2,NCI-H1623,0.926
3,NCI-H727,0.849
4,NCI-H1650,0.927
5,EBC-1,0.954
6,NCI-H1703,0.236
7,NCI-H1993,1.06
8,SW 1573,1.15
9,NCI-H838,0.932
10,LCLC-103H,1.06
11,NCI-H520,0.906
12,NCI-H2126,1.07
13,EMC-BAC-2,0.95
14,NCI-H2085,1.01
15,NCI-H1648,0.556
16,ChaGo-K-1,1.04
17,NCI-H522,1.07
18,SW 900,0.799
19,NCI-H441,1.16

# Compound: C[C@@]1(C(=O)Nc2ccc(F)nc2)CCCN1c1nc(Nc2cc(C3CC3)n[nH]2)c2cccn2n1
# Test: as above
# Details: 0.04 µM
# Procedure, shortened: as §2
row,Cell Line,relative viability
1,NCI-H2342,1.16
2,NCI-H1623,0.809
3,NCI-H727,0.677
4,NCI-H1650,0.894
5,EBC-1,1.01
6,NCI-H1703,0.97
7,NCI-H1993,0.732
8,SW 1573,0.824
9,NCI-H838,0.942
10,LCLC-103H,0.896
11,NCI-H520,0.977
12,NCI-H2126,0.882
13,EMC-BAC-2,0.848
14,NCI-H2085,1.07
15,NCI-H1648,0.837
16,ChaGo-K-1,0.955
17,NCI-H522,0.925
18,SW 900,0.746
19,NCI-H441,0.719

# Same assay, conditions: 0.1265 µM
row,Cell Line,relative viability
1,NCI-H2342,0.863
2,NCI-H1623,0.79
3,NCI-H727,0.38
4,NCI-H1650,0.843
5,EBC-1,0.772
6,NCI-H1703,0.807
7,NCI-H1993,0.696
8,SW 1573,0.762
9,NCI-H838,0.76
10,LCLC-103H,0.922
11,NCI-H520,0.915
12,NCI-H2126,0.614
13,EMC-BAC-2,0.766
14,NCI-H2085,0.952
15,NCI-H1648,0.57
16,ChaGo-K-1,0.826
17,NCI-H522,0.836
18,SW 900,0.727
19,NCI-H441,0.549

# Same assay, conditions: 0.4 µM
row,Cell Line,relative viability
1,NCI-H2342,0.805
2,NCI-H1623,0.678
3,NCI-H727,0.36
4,NCI-H1650,0.798
5,EBC-1,0.769
6,NCI-H1703,0.716
7,NCI-H1993,0.649
8,SW 1573,0.697
9,NCI-H838,0.693
10,LCLC-103H,0.799
11,NCI-H520,0.953
12,NCI-H2126,0.553
13,EMC-BAC-2,0.642
14,NCI-H2085,0.942
15,NCI-H1648,0.499
16,ChaGo-K-1,0.899
17,NCI-H522,0.754
18,SW 900,0.81
19,NCI-H441,0.664

# Same assay, conditions: 1.265 µM
row,Cell Line,relative viability
1,NCI-H2342,0.7
2,NCI-H1623,0.622
3,NCI-H727,0.414
4,NCI-H1650,0.699
5,EBC-1,0.664
6,NCI-H1703,0.778
7,NCI-H1993,0.686
8,SW 1573,0.672
9,NCI-H838,0.736
10,LCLC-103H,0.885
11,NCI-H520,0.99
12,NCI-H2126,0.599
13,EMC-BAC-2,0.593
14,NCI-H2085,0.955
15,NCI-H1648,0.636
16,ChaGo-K-1,0.914
17,NCI-H522,0.878
18,SW 900,0.673
19,NCI-H441,0.703
